From ChEMBL document CHEMBL1150267, “Synthesis and screening of mono- and di-aryl technetium and rhenium metallocarboranes. A new class of probes for the estrogen receptor” (J Med Chem, 2008)

Assay: physchem
Settings: octanol/water
Description: Lipophilicity, log P of the compound

SMILES: c1ccc(Oc2ccccc2)cc1
- logP: 4.2
